One assay deals with B19. The experiment in a line: Production of B19 genome copies equivalent per mL of cell culture, qPCR. Format: cell-based, Human Parvovirus B19. Particulars: UT7/Epo-E2 cell line after chloroquine treatment, 96 h post infection. The method, then: Cells (day 8 CD36^+EPC, UT7/Epo-S1, UT7/Epo-STI and UT7/Epo-E2) were inoculated with B19. 24 h after inoculation (24 hpi), cells were washed. 3 days later (96 hpi), supernatant was collected, DNA was isolated and B19 DNA was quantified by qPCR according to a B19 DNA standard (GenBank accession no. AY386330). Results are means±SD of 3 independent experiments. For CD36+ EPC, results are means±SD of three day-8 erythroid culture from CD34+ hematopoietic stem cells isolated from 3 different umbilical cord blood.
B19 genome production (FIG. 12) and transcription (FIG. 13) was evaluated at 96h post infection in CD36+EPC cells (day 8) and UT7 cell lines with or without addition of chloroquine (FIG. 13A and B). 96 h post infection, DNA was extracted from an aliquot of 1 mL of cell culture and RNA from cell pellets. B19 genome production was evaluated by qPCR and genome equivalent (GEq)/mL was calculated according to a B19 genome calibration curve. Transcription was analysed by RT-qPCR as previously described. […] UT7/Epo-E2 cell line presents the highest quantity of B19 genome equivalent produced, with at least 7.65×10^7 GEq/mL after chloroquine treatment. […]

Another assay has as its system B19V. The experiment in a line: B19V infection of hematopoietic cell lines, VP2 mRNA by RT-qPCR normalized to beta-actin. Particulars: for decrease of B19V infection by a factor: UT7/Epo-STI cells treated two days before B19V infection (JQ1 0.5 μM, TGF-β 2 ng/mL), 72 h post-inoculation.

Protocol for B19V: Three distinct UT-7/Epo cell lines were used: 1) UT-7/Epo-S1, a subclone of UT-7/Epo (16), was obtained from Dr Kazuo Sugamura (Tohoku University Graduate School of Medicine, Japan). 2) UT-7/Epo and UT7/Epo-Cl3, a subclone isolated from UT-7/Epo3) UT7/Epo-STI cells were derived from UT-7/GM cell line and were maintained at low passage, with stringency for erythroid features. UT-7 cells were maintained at 37° C., under an atmosphere containing 5% CO2, in alpha minimum essential medium (αMEM) supplemented with 10% fetal calf serum (FCS), 2 mM L-glutamine (Hyclone), 100 U/mL penicillin, 100 μg/mL streptomycin and 2 U/mL recombinant human Erythropoietin (rh-Epo, Euromedex, RC213-15). Where specified, 0.5 μM JQ1 (Sigma-Aldrich, France) or 2 ng/mL TGF-β (Peprotech, France) was added to the culture medium for two days before B19V infection. TF1 (12) and TF1-ER erythroleukemia cells were maintained in Roswell Park Memorial Institute (RPM!) 1640 medium supplemented with 10% FCS, 2 mM L-glutamine (Hyclone), 100 U/mL penicillin, 100 μg/mL streptomycin and 2 U/mL rh-Epo or 5 ng/mL human granulocyte macrophage colony-stimulating factor (GM-CSF, Peprotech).
Plasma samples containing high titers of infectious B19V from asymptomatic blood donors were provided by the Etablissement Français du Sang (EFS). Plasma samples were determined to be negative for both B19V IgG and IgM, with a viral titer of 10^11 B19V DNA genome equivalent (ge)/mL. Briefly, cells were maintained in exponential growth condition by dilution to 0.3×10^6 cells/mL the day before infection. On the day of infection, cells were washed and diluted in FCS-free medium without Epo, at a density of 10·10^6 cells/mL. B19V inoculation was carried out in a 96-well plate, with 10 μL of cell suspension (10^5 cells) and 50 μL of a 100-fold dilution of B19V plasma (10^9 ge/mL), corresponding to a mean of 500 ge/cell. The cells were then incubated at 4° C. for 2 h, and then at 37° C., for 1 h, under an atmosphere containing 5% CO2. We added 140 μL of complete medium and maintained the cells in culture until 72 h. Where specified, we added chloroquine (CQ) to the complete medium, at a final concentration of 25 μM. Cell viability was assessed by trypan blue exclusion test (0.4% in PBS, Thermo Fisher Scientific), by counting blue and total cells under a microscope, with a hemocytometer. After correction for the dilution factor, viability was calculated as follows: % viable cells=[1−(number of blue cells/number of total cell)]×100. At 24, 48 or 72 h post infection (hpi), cells were centrifuged (8 mins at 300×g), supernatants were discarded and cell pellets were frozen at −80° C. until analysis.
Total RNA was extracted from cell pellets with the RNeasy 96 QIAcubeHT kit and a QIAcubeHT machine, according to the manufacturer's instructions. The extraction step included DNase treatment for 15 minutes, to decrease the risk of genomic DNA amplification during PCR. Real-time reverse transcription-quantitative PCR (RT-qPCR) was performed with the Taqman Fast Virus one-step PCR kit (Applied Biosystems). […] For control and normalization with respect to the number of cells, we used a duplex strategy. […] Reactions were performed on 5 μL of extracted RNA with the QuantStudio 3 PCR system and. The reaction began with reverse transcription at 48° C. for 15 mins, followed by inactivation of the reverse transcriptase and activation of the polymerase by heating at 95° C. for 10 mins, followed by 40 cycles of 15s at 95° C. and 30 s at 60° C. […]

For the molecule `CCN(CC)CCCC(C)Nc1ccnc2cc(Cl)ccc12` (racemic) [Chloroquine, (RS)-N-(7-chloroquinolin-4-yl)-N,N-diéthyl-pentane-1,4-diamine], the “quantity of B19 genome equivalent produced” value in the assay with B19 is recorded as “at least 7.65×10^7 GEq/mL”. For the same molecule, the VP2 expression entry with B19V (TF1 and TF1-ER cells, under GM-CSF or Epo, with or without chloroquine treatment) is “undetectable”. Further, the “enhancement of UT7/Epo-S1 sensitivity to B19V (relative B19 mRNA expression)” value in the assay with B19V (UT7/Epo-S1 cells, chloroquine 25 μM, 72 h post-infection) was 5 fold. Moreover, in the assay with B19V (UT7/Epo-STI cells + chloroquine 25 μM, 72 h post-infection), the “relative B19 mRNA level (VP2), UT7/Epo-S1 without chloroquine set to 1” value is given as 25.8+4.9.
On to `Cc1sc2c(c1C)C(c1ccc(Cl)cc1)=N[C@@H](CC(=O)OC(C)(C)C)c1nnc(C)n1-2` [JQ1], for which, in the assay on B19V, the “decrease of B19V infection by a factor” value is listed as “about 10”.
The same measure, in the same setting: then “TGF-B: hormonal induction of erythroid differentiation (Peprotech)”, with “about 10”.

The values are drawn from US20240101958A1, “NOVEL HUMAN ERYTHROID PROGENITOR CELL LINE HIGHLY […] B19 INFECTION AND USES THEREOF” (priority 2020, published 2024).
